How the values were obtained:
[1] = molecular target: T1, acetylcholinesterase (Rattus norvegicus, UniProt P37136); experiment: Acetylcholinesterase activity in rat brain homogenate (Ellman spectrophotometric method); format: biochemical, Wistar rat; conditions: rat brain enzyme preparation
T1 construct: Wistar rat brain was homogenized in 10% (w/v) of ice-cold Tris-buffered saline; from tissue; host or cells: Wistar rat brain homogenate, 10,000 g supernatant
T1 sequence (P37136 32-614): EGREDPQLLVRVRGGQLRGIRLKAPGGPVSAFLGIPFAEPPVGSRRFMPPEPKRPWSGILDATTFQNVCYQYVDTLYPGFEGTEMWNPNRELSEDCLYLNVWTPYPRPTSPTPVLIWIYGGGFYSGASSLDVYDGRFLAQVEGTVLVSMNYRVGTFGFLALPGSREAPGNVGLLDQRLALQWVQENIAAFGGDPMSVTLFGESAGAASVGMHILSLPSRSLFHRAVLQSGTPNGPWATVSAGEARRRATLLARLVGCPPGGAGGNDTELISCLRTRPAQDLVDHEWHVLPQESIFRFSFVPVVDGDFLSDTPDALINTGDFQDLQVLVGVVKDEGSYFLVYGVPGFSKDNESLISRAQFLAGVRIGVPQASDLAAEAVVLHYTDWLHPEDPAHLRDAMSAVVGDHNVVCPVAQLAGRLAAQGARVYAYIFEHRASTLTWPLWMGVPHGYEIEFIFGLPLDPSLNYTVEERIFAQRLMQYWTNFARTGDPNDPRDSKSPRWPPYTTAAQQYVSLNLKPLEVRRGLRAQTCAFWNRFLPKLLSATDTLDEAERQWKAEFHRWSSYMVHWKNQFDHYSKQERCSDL
Protocol: Wistar rat brain was homogenized in 10% (w/v) of ice-cold Tris-buffered saline which comprised 10 mM Tris HCl, pH 7.4, 1 mM ethylenediaminetetraacetic acid, 0.9% (w/v) bovine serum albumin. Homogenates were centrifuged at 10,000 g for 10 minutes at 4° C. Supernatants were decanted and stored in aliquots at −70° C. until required.
Briefly, the assay was carried out at room temperature using 0.1 M phosphate buffer, pH 8.0, containing 0.075 M acetylthiocholine iodide and 0.01 M 5,5-dithio-bis-(2-nitrobenzoic acid) (DTNB). The DTNB was prepared in 0.1 M phosphate buffer, pH 7.0, which contained 0.018 M sodium bicarbonate to ensure stability. The reaction was started by the addition of 100 μg of enzyme preparation to a final assay volume of 3.2 ml, and mixed thoroughly. Progress was monitored spectrophotometrically at 412 nm for a continuous period. A blank was run in conjunction with each assay and differed from the test only in that it contained phosphate buffer in place of acetylthiocholine iodide. AchE was assayed in the presence of ethopropazine, which was prepared in ethanol. […] BCHE was measured in the presence of 10^−5 M 1,5-bis-(4-trimethylammoniophenyl)pentan-3-one dibromide (62C47), a specific acetylcholinesterase inhibitor which was added to a final concentration of 10^−5 M. All solutions were freshly prepared and protected from light. Acetylthiocholine, DTNB, 62C47 and ethopropazine were obtained from Sigma Chemical Co., St. Louis, Mo. All other reagents were of the highest grade available from routine suppliers.
Results are expressed as mM acetylthiocholine hydrolysed/100 ug protein/min in Table 1. […] To facilitate comparison between compounds requiring different solubilization vehicles, the relevant results are expressed as percent of the control value in Table 2.

[2] = system: scopolamine-impaired passive avoidance learning; experiment: Reversal of scopolamine-induced amnesia of a passive-avoidance response; format: in vivo, Wistar rats; conditions: mean ± SEM (n)
Protocol: (b) Reversal of Scopolamine-induced Amnesia of a Passive-avoidance Response.
Postnatal day 80 male Wistar rats (300-350 g) were obtained from the Biomedical Facility, University College, Dublin. These were housed singly in a 12 h light/dark cycle with food and water available ad libitum. Animals employed for neurobehavioral studies were maintained and handled in the test environment for 3 days prior to the commencement of studies. All experimental procedures were approved by the Review Committee of the Biomedical Facility of University College, Dublin and were carried out by individuals who held the appropriate license issued by the Ministry of Health.
Animals were trained in a one-trial, step-through, light-dark passive avoidance paradigm. The apparatus consisted of a box measuring 300 mm wide×260 mm deep×270 mm high. The front and top were transparent, allowing observation of behavior inside the apparatus. The box was divided into two compartments, separated by a central shutter which contained a small opening 50 mm wide and 75 mm high. The smaller of the compartments measured 90 mm in width and contained a low power (6 V V) illumination source—the light compartment. The large compartment measured 210 mm in width and was not illuminated. The floor of the training apparatus consisted of a grid of stainless steel bars which could deliver a remotely-controlled, scrambled shock (0.75 mA every 0.5 msec, 5 sec duration) when the animal entered the dark chamber with all four paws. The animals were tested for recall of this inhibitory stimulus prior to sacrifice by placing them into the light compartment and noting their latency to enter the dark compartment. A criterion period of 300 sec was used. The results of this protocol, after administration of saline, scopolamine, test compound, and scopolaine plus test compound, are presented in Table 3.

[3] = test compound 30 mg/kg + scopolamine 0.8 mg/kg
[4] = test compound 10 mg/kg + scopolamine 0.8 mg/kg
[5] = test compound 10 mg/kg alone, 10 mg/kg

| Structure (SMILES) | Acetylcholinesterase activity in the presence of compound ([1]; compound concentration 100 nM) | Acetylcholinesterase activity in the presence of compound ([1]; compound concentration 10 μM) | Acetylcholinesterase activity in the presence of compound ([1]; compound concentration 1.0 mM) | passive avoidance latency, Test cpd. + scopolamine [2, 3] | passive avoidance latency, Test cpd. + scopolamine [2, 4] | other results |
| --- | --- | --- | --- | --- | --- | --- |
| CC(=O)O[C@@H]1c2ccccc2CN2CCCC[C@H]12 (relative stereo) [Example 20, O-acetyl-trans-1,3,4,6,11,11a-hexahydro-2H-benzo[b]quinolizidin-11-ol] | 2.10 mM substrate hydrolyzed/min/100 μg protein | 1.40 mM substrate hydrolyzed/min/100 μg protein | 0.30 mM substrate hydrolyzed/min/100 μg protein |  |  |  |
| CN[C@@H]1c2ccccc2CN2CCC[C@@H]12 (relative stereo) [Example 34a, cis-10-methylamino-1,2,3,5,10,10a-hexahydropyrrolo[1,2-b]isoquinoline] |  |  |  | 534 ± 76 (3) seconds |  | passive avoidance latency, Test cpd. alone ([2]; test compound 30 mg/kg alone): 559 ± 50 (3) seconds |
| CN[C@@H]1c2ccccc2CN2CCCC[C@H]12 (relative stereo) [Example 9, trans-N-Methyl-1,3,4,6,11,11a-hexahydro-11-amino-2H-benzo[b]quinolizine] |  | 2.00 mM substrate hydrolyzed/min/100 μg protein | 0.30 mM substrate hydrolyzed/min/100 μg protein | 258 ± 156 (5) seconds | 104 ± 48 (12) seconds | passive avoidance latency, Test cpd. alone [2, 5]: 459 ± 53 (12) seconds; passive avoidance latency, Test cpd. alone ([2]; test compound 30 mg/kg alone): 529 ± 78 (6) seconds; passive avoidance latency, Test cpd. + scopolamine ([2]; test compound 45 mg/kg + scopolamine 0.8 mg/kg): 322 ± 112 (8) seconds; passive avoidance latency, Test cpd. alone ([2]; test compound 45 mg/kg alone): 340 ± 146 (5) seconds |
| c1ccc(CN[C@@H]2c3ccccc3CN3CCCC[C@H]23)cc1 (relative stereo) [Example 13, trans-N-Benzyl-1,3,4,6,11,11a-hexahydro-11-amino-2H-benzo[b]quinolizine] | 2.30 mM substrate hydrolyzed/min/100 μg protein | 1.90 mM substrate hydrolyzed/min/100 μg protein | 0.20 mM substrate hydrolyzed/min/100 μg protein |  | 048 ± 14 (5) seconds | passive avoidance latency, Test cpd. alone ([2]; test compound 10 mg/kg alone): 410 ± 115 (6) seconds |
| O[C@@H]1c2ccccc2CN2CCC[C@@H]12 (relative stereo) |  |  |  |  |  | melting point: 131 to 133 °C |
| CN[C@@H]1c2ccccc2CN2CCCC[C@H]12 (relative stereo) [Example 9a, trans-N-Methyl-1,3,4,6,11,11a-hexahydro-11-amino-2H-benzo[b]quinolizine] |  |  |  |  | 216 ± 260 (2) seconds | passive avoidance latency, Test cpd. alone [2, 5]: 328 ± 177 (3) seconds |
| CC(=O)O[C@@H]1c2ccccc2CN2CCCC[C@@H]12 (relative stereo) [Example 19, O-acetyl-cis-1,3,4,6,11,11a-hexahydro-2H-benzo[b]quinolizidin-11-ol] | 2.20 mM substrate hydrolyzed/min/100 μg protein | 1.90 mM substrate hydrolyzed/min/100 μg protein | 0.70 mM substrate hydrolyzed/min/100 μg protein |  |  |  |
| O[C@@H]1c2ccccc2CN2CCCC[C@H]12 (relative stereo) [Example 18b, trans-1,3,4,6,11,11a-hexahydro-2H-benzo[b]quinolizidin-11-ol] | 2.50 mM substrate hydrolyzed/min/100 μg protein | 1.90 mM substrate hydrolyzed/min/100 μg protein | 1.00 mM substrate hydrolyzed/min/100 μg protein |  |  |  |
| CN[C@@H]1c2ccccc2CN2C(=O)CC[C@@H]12 (relative stereo) [Example 26b, cis-10Methylamino-1,2,3,5,10,10a-hexahydropyrrolo[1,2b]isoquinolin-3-one] |  |  |  | 182 ± 163 (4) seconds |  | passive avoidance latency, Test cpd. alone ([2]; test compound 30 mg/kg alone): 600 (3) seconds |
| CN[C@@H]1c2ccccc2CN2CCCC[C@@H]12 (relative stereo) [Example 17, cis-N-methyl-1,3,4,6,11,11a-hexahydro-2H-benzo[b]quinolizidin-11-amine] | 2.00 mM substrate hydrolyzed/min/100 μg protein | 1.90 mM substrate hydrolyzed/min/100 μg protein | 0.80 mM substrate hydrolyzed/min/100 μg protein |  |  |  |
| O[C@@H]1c2ccccc2CN2CCCC[C@@H]12 (relative stereo) [Example 18a, cis-1,3,4,6,11,11a-hexahydro-2H-benzo[b]quinolizidin-11-ol] | 2.30 mM substrate hydrolyzed/min/100 μg protein | 2.10 mM substrate hydrolyzed/min/100 μg protein | 1.70 mM substrate hydrolyzed/min/100 μg protein |  |  |  |
| CN[C@@H]1c2cc(OC)ccc2CN2CCCC[C@H]12 (relative stereo) [Example 10, trans-N-Methyl-9-methoxy-1,3,4,6,11,11a-hexahydro11-amino-2H-benzo[b]quinolizine] |  |  |  |  | 054 ± 20 (6) seconds | passive avoidance latency, Test cpd. alone ([2]; test compound 10 mg/kg alone): 592 ± 9 (6) seconds |
| N[C@@H]1c2ccccc2CN2CCCC[C@H]12 (relative stereo) [Example 15, trans-1,3,4,6,11,11a-Hexahydro-11-amino-2H-benzo[b]quinolizine] | 2.20 mM substrate hydrolyzed/min/100 μg protein | 2.00 mM substrate hydrolyzed/min/100 μg protein | 0.20 mM substrate hydrolyzed/min/100 μg protein | 132 ± 103 (6) seconds | 148 ± 101 (5) seconds | passive avoidance latency, Test cpd. alone ([2]; test compound 10 mg/kg alone): 292 ± 92 (6) seconds; passive avoidance latency, Test cpd. alone ([2]; test compound 30 mg/kg alone): 188 ± 102 (6) seconds |
| COc1ccc2c(c1)[C@@H](NCc1ccccc1)[C@H]1CCCCN1C2 (relative stereo) [Example 14, trans-N-Benzyl-9-methoxy-1,3,4,6,11,11a-hexahydro-11-amino-2H benzo[b]quinolizine] |  |  |  | 211 ± 238 (3) seconds |  |  |

Reference: patent publication US6436954B1, “Benzoquinolizidine and benzoindolizidine derivatives and therapeutic uses thereof” (priority 1998, dated 2002)
